Data on one molecule can be found in PMC2678990, “Stilbene glycosides are natural product inhibitors of FGF-2-induced angiogenesis” (BMC Cell Biology, 2009).

Series [1] concerns chick chorioallantoic membrane. Description: Chick chorioallantoic membrane (CAM) assay. The format is in vivo. As to the method:
The angiogenic activity of test compounds was determined using the semi-quantitative chick chorioallantoic assay (CAM) as described previously. To expose the CAM a window was created in the shells of 4 day-old chicken eggs. […] […] This approach enabled calculation of an accumulated response in each group. To photograph the membrane, 2 cm^3 of a 50% emulsion of aqueous paraffin oil containing 2% Tween-80 was injected at the site of application and photographed using a Leitz dissecting microscope. Each experiment was performed five times and statistical significance was determined by the Mann-Whitney U test and the data is expressed as a median value (m).

The subject of a further series is VEGF receptor. Description: ELISA binding assay of VEGF to soluble receptor. The settings on record: results not shown. As to the method: Competition between growth factors, their cell surface receptors and test compounds was assessed in an ELISA assay as described by. A 96-well plate was coated overnight with 2 μg/ml of the soluble receptors (FGFR-1 or -2 and VEGFR-1 or -2) and blocked with 1% BSA in PBS containing 0.05% Tween-20. The test compound and FGF-2 or VEGF were pre-mixed for 2 h and added to the plate and incubated for 2 h. The plate was washed (× 3 with PBS-Tween-20) and incubated with anti-FGF-2 IgG (1:500 in PBS-Tween-20) or anti-VEGF IgG (!:250 in PBS-Tween-20) for 45 min, washed and incubated with horseradish peroxidase conjugated goat anti-IgG (Santa Cruz, 1:1000) for a further 45 min. After washing (× 3), ABTS peroxidase substrate was added and the absorbance read at 405 nm. IC50 values were calculated from the data using the EZ-Fit enzyme kinetic software (Perella Scientific Inc., Amherst, USA).
On the technique in general: In an ELISA, binding on a coated surface is turned into a signal by an enzyme label.

Series [2] concerns HDMEC. Briefly: FGF-2-induced chemotaxis, Boyden chamber assay. The format is cell-based. The conditions noted are these: Homo sapiens, 6 h, FGF-2 25 ng/ml. As to the method:
The effect of compounds 1 and 2 on cell migration was examined in vitro using a modified Boyden chamber system with 8.0 μm pore polycarbonate filter inserts (TSL, UK). The filter was coated overnight with 0.1%w/v gelatine, and air-dried. Cells (1 × 10^5) were placed in the upper part of the filter and test compounds at different concentrations with and without growth factors were added to the lower part in SPM. Cells were incubated at 37°C for 6 h and the filter removed and the upper side containing non migrated cells wiped and rinsed. The filters were fixed (4% paraformaldehyde), and stained (Geimsa) and cell migration in duplicate wells was determined by counting cell numbers on the lower surface. Experiments were performed in triplicate and at least two times.

The test system of series [3] is HDMEC. Briefly: FGF-2 invasion in Matrigel. It is filed as cell-based, human. The conditions noted are these: Homo sapiens, FGF-2 25 ng/ml.
Series [4] deals with BAEC. Briefly: VEGF-induced proliferation. The format is cell-based, bovine. The settings on record: 72 h, NS = inhibition less than 50%. On the procedure: (§1) Cells were seeded in triplicate at a concentration of 6.0 × 10^5/ml, in 2 ml of complete medium in 6-well plates. […] Growth factors, FGF-2 (25 ng/ml), EGF (75 ng/ml) and VEGF (10 ng/ml) and test compounds at different concentration were added and cells incubated for a further 72 h. Control wells were treated with 5 μl DMSO. Concentration ranges of test compounds and pre-incubation times were based on pilot studies. After 72 h, cells were washed in PBS, detached in 0.05%w/v trypsin in PBS, and counted on a Coulter counter (Coulter Electronics, Hialeah, FL) set to a threshold of 30 μm. Experiments were performed in triplicate and repeated at least twice.

The test system of series [5] is BAEC. Description: FGF-2-induced tube formation in Matrigel. The format is cell-based, bovine. The settings on record: Matrigel; for IC50: 24 h, FGF-2 25 ng/ml. On the procedure:
Cells (1.0 × 10^6/ml) were mixed with an equal volume of Matrigel (Becton -Dickinson, Oxford, UK; prepared according to the supplier's instructions) at 4°C. Aliquots (80 μl) were added to the wells of a 48-well plate and allowed to polymerise (1 h) then 500 μl of 15% FCS containing FGF-2 (25 ng/ml; or other growth factors), with or without test compounds was added. The cells were incubated for 24 h at 37°C then fixed in 4% paraformaldehyde (5 min), washed in cold ethanol and the plate air dried. Cells were stained with Geimsa (30 s), air dried and photographed. Ten random fields were selected and the number of closed tubes counted.

Series [6] relates to HDMEC. Briefly: FGF-2-induced proliferation. It is filed as cell-based. The settings on record: Homo sapiens, FGF-2 25 ng/ml, 72 h. As to the method:
as §1

For series [7], the system named is BAEC. Description: FGF-2 invasion in Matrigel. The format is cell-based, bovine. The conditions noted are these: Bos taurus, FGF-2 25 ng/ml. On the procedure:
The effect of the test compounds on cell invasion was investigated using a Transwell Boyden chamber system coated with reconstituted growth factor-depleted Matrigel. […] Representative photomicrographs for the effect of compound 1 are shown (Figure 7B).
Figure 7 The effect of compounds 1 (AI) and 2 (AII) on BAEC invasion into a Matrigel layer was studied using the chemoinvasion assay described below. Cells (1.7 × 10^4) were added to the Matrigel coated upper Boyden chamber and the compounds with or without FGF-2 added to the lower chamber. Cell invasion was measured after 24 h and assessed as described below. […] Results are the mean of three experiments. (B) Representative photomicrographs are shown for the effect of compound 1 on BAEC (original magnification × 20).
The procedure described above was repeated and wells having a uniform network of tubes were used to assess invasion into a second layer of Matrigel. Matrigel (100 μl), with and without the test compounds was added to the cells and allowed to polymerise (1 h at 37°C). FCS (15%) was added and the cells incubated for 24–72 h when tube growth into the upper layer was measured as described above.

The test system of series [8] is BAEC. Description: EGF-induced proliferation. The conditions noted are these: EGF 75 ng/ml, 72 h, NS = inhibition less than 50%. The format is cell-based, bovine. On the procedure:
as §1

The IC50 is the midpoint of a concentration-inhibition curve. Lower therefore signals higher potency. With `COc1cc(C=Cc2ccc(O)cc2)cc(OC2OC(COC3OC(C)C(O)C(O)C3O)C(O)C(O)C2OC2OC(C)C(O)C(O)C2O)c1` (stereo not drawn) [Compound 1], the “Inflammatory or angiogenic response of compound alone” value in series [1] (10 μg compound alone, without FGF-2) is on record as “no inflammatory or angiogenic response”. Besides, the “In vivo CAM assay, inhibition of FGF-2-induced angiogenesis” value in series [1] (10 μg compound with FGF-2, 6 days exposure, listed as I) was “complete inhibition”. In addition, the “Degree of angiogenesis (m), median score” value in [1] (10 μg compound with FGF-2, scale 0 to 3 or greater) turned out to be 0. Also, the “Effect on binding to the VEGF receptor” value with VEGF receptor is “did not bind”. Besides, the concentration for half-maximal inhibition (IC50) in the series with HDMEC [2] is 21.5 ± 0.6 µM; in the series with HDMEC [3], 5.8 ± 0.18 µM; in the series with BAEC [4] (Bos taurus) it was greater than 71.5 µM; in the series on BAEC [5] (Bos taurus) it was 11.1 ± 0.28 µM; with BAEC [5] it was 18.2 ± 0.65 µM; in the series on HDMEC [6] it was 42 ± 0.93 µM. The IC50 in the series on BAEC [7] is 11.1 ± 0.28 µM; in the series with BAEC [8] (Bos taurus), greater than 71.5 µM. In addition, in the series with BAEC [4], the “VEGF-induced proliferation, IC50” value is reported as “no significant inhibitory effect”. Further, the “Effect on tube formation in the absence of FGF-2” value with BAEC [5] (without FGF-2) was “no inhibitory effect”. In the series on BAEC [8], the “EGF-induced proliferation, IC50” value was “no significant inhibitory effect”.
